Test results from ChEMBL document CHEMBL5303573, “Mapping human microbiome drug metabolism by gut bacteria and their genes” (Nature, 2019).

Experiment: The drug is tested on Ruminococcus gnavus strain: ATCC29149 for biotransformation. The drug concentrations were measured before and after a 12-h incubation by liquid-chromatography-coupled mass spectrometry (LC–MS)
Conditions: mediterraneibacter gnavus, 2 µM

Compound	Bacterial Biotransformation
CN1CCC(=C2c3ccccc3CCc3cccnc32)CC1.O=C(O)/C=C\C(=O)O.O=C(O)/C=C\C(=O)O [AZATADINE MALEATE]	Compound NOT metabolized
OC(CCN1CCCCC1)(c1ccccc1)C1CC2C=CC1C2 (centres undefined) [BIPERIDEN]	Compound NOT metabolized
Br.CN(C)CCCC1(c2ccc(F)cc2)OCc2cc(C#N)ccc21 (centres undefined) [CITALOPRAM HYDROBROMIDE]	Compound NOT metabolized

Experiment: The drug is tested on Edwardsiella tarda strain: ATCC23685 for biotransformation. The drug concentrations were measured before and after a 12-h incubation by liquid-chromatography-coupled mass spectrometry (LC–MS)
Conditions: 2 µM

Compound	Bacterial Biotransformation
CN1CCC(=C2c3ccccc3CCc3cccnc32)CC1.O=C(O)/C=C\C(=O)O.O=C(O)/C=C\C(=O)O [AZATADINE MALEATE]	Compound NOT metabolized
OC(CCN1CCCCC1)(c1ccccc1)C1CC2C=CC1C2 (centres undefined) [BIPERIDEN]	Compound NOT metabolized
Br.CN(C)CCCC1(c2ccc(F)cc2)OCc2cc(C#N)ccc21 (centres undefined) [CITALOPRAM HYDROBROMIDE]	Compound NOT metabolized

Experiment: The drug is tested on Parabacteroides merdae strain: ATCC43184 for biotransformation. The drug concentrations were measured before and after a 12-h incubation by liquid-chromatography-coupled mass spectrometry (LC–MS)
Conditions: 2 µM

Compound	Bacterial Biotransformation
CN1CCC(=C2c3ccccc3CCc3cccnc32)CC1.O=C(O)/C=C\C(=O)O.O=C(O)/C=C\C(=O)O [AZATADINE MALEATE]	Compound NOT metabolized
OC(CCN1CCCCC1)(c1ccccc1)C1CC2C=CC1C2 (centres undefined) [BIPERIDEN]	Compound NOT metabolized
Br.CN(C)CCCC1(c2ccc(F)cc2)OCc2cc(C#N)ccc21 (centres undefined) [CITALOPRAM HYDROBROMIDE]	Compound NOT metabolized

Experiment: The drug is tested on Bacteroides pectinophilus strain: ATCC43243 for biotransformation. The drug concentrations were measured before and after a 12-h incubation by liquid-chromatography-coupled mass spectrometry (LC–MS)
Conditions: 2 µM

Compound	Bacterial Biotransformation
CN1CCC(=C2c3ccccc3CCc3cccnc32)CC1.O=C(O)/C=C\C(=O)O.O=C(O)/C=C\C(=O)O [AZATADINE MALEATE]	Compound NOT metabolized
OC(CCN1CCCCC1)(c1ccccc1)C1CC2C=CC1C2 (centres undefined) [BIPERIDEN]	Compound NOT metabolized
Br.CN(C)CCCC1(c2ccc(F)cc2)OCc2cc(C#N)ccc21 (centres undefined) [CITALOPRAM HYDROBROMIDE]	Compound NOT metabolized

Experiment: The drug is tested on Ruminococcus torques strain: ATCC27756 for biotransformation. The drug concentrations were measured before and after a 12-h incubation by liquid-chromatography-coupled mass spectrometry (LC–MS)
Assay type: ADME
Design: dose 2 uM, timepoint 0 vs 12 hours
Conditions: 2 µM

Compound	Bacterial Biotransformation
CN1CCC(=C2c3ccccc3CCc3cccnc32)CC1.O=C(O)/C=C\C(=O)O.O=C(O)/C=C\C(=O)O [AZATADINE MALEATE]	Compound NOT metabolized
OC(CCN1CCCCC1)(c1ccccc1)C1CC2C=CC1C2 (centres undefined) [BIPERIDEN]	Compound NOT metabolized
Br.CN(C)CCCC1(c2ccc(F)cc2)OCc2cc(C#N)ccc21 (centres undefined) [CITALOPRAM HYDROBROMIDE]	Compound NOT metabolized

Experiment: The drug is tested on Enterococcus faecalis strain: V583 for biotransformation. The drug concentrations were measured before and after a 12-h incubation by liquid-chromatography-coupled mass spectrometry (LC–MS)
Conditions: 2 µM

Compound	Bacterial Biotransformation
CN1CCC(=C2c3ccccc3CCc3cccnc32)CC1.O=C(O)/C=C\C(=O)O.O=C(O)/C=C\C(=O)O [AZATADINE MALEATE]	Compound NOT metabolized
OC(CCN1CCCCC1)(c1ccccc1)C1CC2C=CC1C2 (centres undefined) [BIPERIDEN]	Compound NOT metabolized
Br.CN(C)CCCC1(c2ccc(F)cc2)OCc2cc(C#N)ccc21 (centres undefined) [CITALOPRAM HYDROBROMIDE]	Compound NOT metabolized

Experiment: The drug is tested on Providencia stuartii strain: ATCC25827 for biotransformation. The drug concentrations were measured before and after a 12-h incubation by liquid-chromatography-coupled mass spectrometry (LC–MS)
Conditions: 2 µM

Compound	Bacterial Biotransformation
CN1CCC(=C2c3ccccc3CCc3cccnc32)CC1.O=C(O)/C=C\C(=O)O.O=C(O)/C=C\C(=O)O [AZATADINE MALEATE]	Compound NOT metabolized
OC(CCN1CCCCC1)(c1ccccc1)C1CC2C=CC1C2 (centres undefined) [BIPERIDEN]	Compound NOT metabolized
Br.CN(C)CCCC1(c2ccc(F)cc2)OCc2cc(C#N)ccc21 (centres undefined) [CITALOPRAM HYDROBROMIDE]	Compound NOT metabolized

Experiment: The drug is tested on Anaerococcus hydrogenalis strain: DSM7454 for biotransformation. The drug concentrations were measured before and after a 12-h incubation by liquid-chromatography-coupled mass spectrometry (LC–MS)
Conditions: 2 µM

Compound	Bacterial Biotransformation
CN1CCC(=C2c3ccccc3CCc3cccnc32)CC1.O=C(O)/C=C\C(=O)O.O=C(O)/C=C\C(=O)O [AZATADINE MALEATE]	Compound NOT metabolized
OC(CCN1CCCCC1)(c1ccccc1)C1CC2C=CC1C2 (centres undefined) [BIPERIDEN]	Compound NOT metabolized
Br.CN(C)CCCC1(c2ccc(F)cc2)OCc2cc(C#N)ccc21 (centres undefined) [CITALOPRAM HYDROBROMIDE]	Compound NOT metabolized

Experiment: The drug is tested on Bacteroides ovatus strain: ATCC8483 for biotransformation. The drug concentrations were measured before and after a 12-h incubation by liquid-chromatography-coupled mass spectrometry (LC–MS)
Conditions: 2 µM

Compound	Bacterial Biotransformation
CN1CCC(=C2c3ccccc3CCc3cccnc32)CC1.O=C(O)/C=C\C(=O)O.O=C(O)/C=C\C(=O)O [AZATADINE MALEATE]	Compound NOT metabolized
OC(CCN1CCCCC1)(c1ccccc1)C1CC2C=CC1C2 (centres undefined) [BIPERIDEN]	Compound NOT metabolized
Br.CN(C)CCCC1(c2ccc(F)cc2)OCc2cc(C#N)ccc21 (centres undefined) [CITALOPRAM HYDROBROMIDE]	Compound NOT metabolized

Conditions: bifidobacterium adolescentis, 12 h, 2 µM
Description: The drug is tested on Bifidobacterium adolescentis strain: ATCC 15703 for biotransformation. The drug concentrations were measured before and after a 12-h incubation by liquid-chromatography-coupled mass spectrometry (LC–MS)

Compound	Bacterial Biotransformation
CN1CCC(=C2c3ccccc3CCc3cccnc32)CC1.O=C(O)/C=C\C(=O)O.O=C(O)/C=C\C(=O)O [AZATADINE MALEATE]	Compound NOT metabolized
OC(CCN1CCCCC1)(c1ccccc1)C1CC2C=CC1C2 (centres undefined) [BIPERIDEN]	Compound NOT metabolized
Br.CN(C)CCCC1(c2ccc(F)cc2)OCc2cc(C#N)ccc21 (centres undefined) [CITALOPRAM HYDROBROMIDE]	Compound NOT metabolized

Experiment: The drug is tested on Bacteroides coprophilus strain: DSM18228 for biotransformation. The drug concentrations were measured before and after a 12-h incubation by liquid-chromatography-coupled mass spectrometry (LC–MS)
Conditions: 2 µM

Compound	Bacterial Biotransformation
CN1CCC(=C2c3ccccc3CCc3cccnc32)CC1.O=C(O)/C=C\C(=O)O.O=C(O)/C=C\C(=O)O [AZATADINE MALEATE]	Compound NOT metabolized
OC(CCN1CCCCC1)(c1ccccc1)C1CC2C=CC1C2 (centres undefined) [BIPERIDEN]	Compound NOT metabolized
Br.CN(C)CCCC1(c2ccc(F)cc2)OCc2cc(C#N)ccc21 (centres undefined) [CITALOPRAM HYDROBROMIDE]	Compound NOT metabolized

Experiment: The drug is tested on Bacteroides dorei strain: DSM17855 for biotransformation. The drug concentrations were measured before and after a 12-h incubation by liquid-chromatography-coupled mass spectrometry (LC–MS)
Conditions: phocaeicola dorei, 2 µM

Compound	Bacterial Biotransformation
OC(CCN1CCCCC1)(c1ccccc1)C1CC2C=CC1C2 (centres undefined) [BIPERIDEN]	Compound NOT metabolized

Conditions: bacteroides fragilis, 12 h, 2 µM
Description: The drug is tested on Bacteroides fragilis strain: NCTC 9343 for biotransformation. The drug concentrations were measured before and after a 12-h incubation by liquid-chromatography-coupled mass spectrometry (LC–MS)

Compound	Bacterial Biotransformation
CN1CCC(=C2c3ccccc3CCc3cccnc32)CC1.O=C(O)/C=C\C(=O)O.O=C(O)/C=C\C(=O)O [AZATADINE MALEATE]	Compound NOT metabolized
Br.CN(C)CCCC1(c2ccc(F)cc2)OCc2cc(C#N)ccc21 (centres undefined) [CITALOPRAM HYDROBROMIDE]	Compound NOT metabolized

Experiment: The drug is tested on Anaerotruncus colihominis strain: DSM17241 for biotransformation. The drug concentrations were measured before and after a 12-h incubation by liquid-chromatography-coupled mass spectrometry (LC–MS)
Conditions: 2 µM

Compound	Bacterial Biotransformation
CN1CCC(=C2c3ccccc3CCc3cccnc32)CC1.O=C(O)/C=C\C(=O)O.O=C(O)/C=C\C(=O)O [AZATADINE MALEATE]	Compound NOT metabolized
OC(CCN1CCCCC1)(c1ccccc1)C1CC2C=CC1C2 (centres undefined) [BIPERIDEN]	Compound NOT metabolized
Br.CN(C)CCCC1(c2ccc(F)cc2)OCc2cc(C#N)ccc21 (centres undefined) [CITALOPRAM HYDROBROMIDE]	Compound NOT metabolized

Experiment: The drug is tested on Eubacterium rectale strain: ATCC33656 for biotransformation. The drug concentrations were measured before and after a 12-h incubation by liquid-chromatography-coupled mass spectrometry (LC–MS)
Conditions: agathobacter rectalis, 2 µM

Compound	Bacterial Biotransformation
CN1CCC(=C2c3ccccc3CCc3cccnc32)CC1.O=C(O)/C=C\C(=O)O.O=C(O)/C=C\C(=O)O [AZATADINE MALEATE]	Compound NOT metabolized
OC(CCN1CCCCC1)(c1ccccc1)C1CC2C=CC1C2 (centres undefined) [BIPERIDEN]	Compound NOT metabolized
Br.CN(C)CCCC1(c2ccc(F)cc2)OCc2cc(C#N)ccc21 (centres undefined) [CITALOPRAM HYDROBROMIDE]	Compound NOT metabolized

Conditions: limosilactobacillus reuteri cf48-3a, 12 h, 2 µM
Description: The drug is tested on Lactobacillus reuteri CF48-3A strain: BEI HM-102 for biotransformation. The drug concentrations were measured before and after a 12-h incubation by liquid-chromatography-coupled mass spectrometry (LC–MS)

Compound	Bacterial Biotransformation
CN1CCC(=C2c3ccccc3CCc3cccnc32)CC1.O=C(O)/C=C\C(=O)O.O=C(O)/C=C\C(=O)O [AZATADINE MALEATE]	Compound NOT metabolized
OC(CCN1CCCCC1)(c1ccccc1)C1CC2C=CC1C2 (centres undefined) [BIPERIDEN]	Compound NOT metabolized
Br.CN(C)CCCC1(c2ccc(F)cc2)OCc2cc(C#N)ccc21 (centres undefined) [CITALOPRAM HYDROBROMIDE]	Compound NOT metabolized

Experiment: The drug is tested on Alistipes indistinctus strain: DSM22520 for biotransformation. The drug concentrations were measured before and after a 12-h incubation by liquid-chromatography-coupled mass spectrometry (LC–MS)
Conditions: 2 µM

Compound	Bacterial Biotransformation
CN1CCC(=C2c3ccccc3CCc3cccnc32)CC1.O=C(O)/C=C\C(=O)O.O=C(O)/C=C\C(=O)O [AZATADINE MALEATE]	Compound NOT metabolized
OC(CCN1CCCCC1)(c1ccccc1)C1CC2C=CC1C2 (centres undefined) [BIPERIDEN]	Compound NOT metabolized
Br.CN(C)CCCC1(c2ccc(F)cc2)OCc2cc(C#N)ccc21 (centres undefined) [CITALOPRAM HYDROBROMIDE]	Compound NOT metabolized

Experiment: The drug is tested on Bacteroides uniformis strain: ATCC8492 for biotransformation. The drug concentrations were measured before and after a 12-h incubation by liquid-chromatography-coupled mass spectrometry (LC–MS)
Conditions: 2 µM

Compound	Bacterial Biotransformation
OC(CCN1CCCCC1)(c1ccccc1)C1CC2C=CC1C2 (centres undefined) [BIPERIDEN]	Compound NOT metabolized

Conditions: parabacteroides johnsonii, 12 h, 2 µM
Description: The drug is tested on Parabacteroides johnsonii strain: DSM18315 for biotransformation. The drug concentrations were measured before and after a 12-h incubation by liquid-chromatography-coupled mass spectrometry (LC–MS)

Compound	Bacterial Biotransformation
CN1CCC(=C2c3ccccc3CCc3cccnc32)CC1.O=C(O)/C=C\C(=O)O.O=C(O)/C=C\C(=O)O [AZATADINE MALEATE]	Compound NOT metabolized
Br.CN(C)CCCC1(c2ccc(F)cc2)OCc2cc(C#N)ccc21 (centres undefined) [CITALOPRAM HYDROBROMIDE]	Compound NOT metabolized

Experiment: The drug is tested on Clostridium ramosum strain: DSM1402 for biotransformation. The drug concentrations were measured before and after a 12-h incubation by liquid-chromatography-coupled mass spectrometry (LC–MS)
Conditions: thomasclavelia ramosa, 2 µM

Compound	Bacterial Biotransformation
CN1CCC(=C2c3ccccc3CCc3cccnc32)CC1.O=C(O)/C=C\C(=O)O.O=C(O)/C=C\C(=O)O [AZATADINE MALEATE]	Compound NOT metabolized
OC(CCN1CCCCC1)(c1ccccc1)C1CC2C=CC1C2 (centres undefined) [BIPERIDEN]	Compound NOT metabolized
Br.CN(C)CCCC1(c2ccc(F)cc2)OCc2cc(C#N)ccc21 (centres undefined) [CITALOPRAM HYDROBROMIDE]	Compound NOT metabolized
